Literature values, collected in patent publication US20140112913A1, “METHODS OF PROGNOSING AND ADMINISTERING TREATMENT FOR INFLAMMATORY DISORDERS” (Genqual Corporation, priority 2011, published 2014).

Settings: treatment of rheumatoid arthritis; patients who failed adequate treatment with other approved therapies

Actemra: anti-IL-6 humanized mAb against soluble and cellular IL-6 receptor
failure rate due to side effects or lack of efficacy: around one-third
